Legend:
[1] = tested on: MOLM14 human acute myeloid cells; assay: MTT cytotoxicity assay, MOLM14; assay type: cell-based; conditions: concentration 0.0025 mg/mL
Description: The MOLM14 AML cell line, MV4;11, and THP1 cell lines were cultured and incubated in RPMI 1640 medium with 10% FBS at 37° C. and air containing 5% CO2. When the cells reached about 70% confluency, the cells were split with a density of 40,000 cells per cm^2. Adult Retinal Pigment Epithelial (ARPE-19) cells were grown in Dulbecco's Modified Eagle Medium (DMEM)/F12 (1:1) with 10% FBS and 1% Penicillin-Streptomycin (Pen-Strep). Dental Pulp Stem Cells (DPSCs) were grown in DMEM with glutamine and 10% FBS and 1% Pen-Strep. A Hemolysis assay kit was purchased from Creative Biolabs™.
The cytotoxicity of plain nanogels, plain SDS nanogels and 2, 5, 10 and 15 wt % ART631-loaded NanoART631 were assessed using thiazolyl blue tetrazolium bromide (MTT) and WST1 assays against MOLM14 human acute myeloid cells, MV4;11 cells, THP1 cells, normal adult retinal pigment epithelium-19 (ARPE-19) cells, and dental pulp stem cells (DPSCs). […] Pure ART631, ART838, 5 and 10 wt % NanoART631 IC50 were determined by adding 5e^−6, 5e^−5, 5e^−4, 6.25e^−4, 0.001, 0.0025, 0.005, 0.01, 0.05, 0.1, 0.2, 0.5, 1, 5, 10 mg·mL-1 of the formulation to MOLM14 AML cells. […] Absorbance was read at 570 nm using a BioTek™ cytation 5 microplate reader for all experiments after removing all the wells contents and then dissolving the formazan crystals in 150 μL of DMSO. […]

[2] = tested on: 9 human leukemia cell lines; conditions: 9 human leukemia cell lines in vitro; cited from earlier work
[3] = Water solubility of ART631, alone and loaded into nanogels; assay type: physicochemical; conditions: drug without nanogel

C[C@@H]1CCC2[C@@H](C)[C@@H](CC(COP(=O)(Oc3ccccc3)Oc3ccccc3)C[C@H]3O[C@@H]4O[C@@]5(C)CCC6[C@H](C)CCC([C@H]3C)[C@]64OO5)O[C@@H]3O[C@@]4(C)CCC1[C@@]23OO4 (stereo partly shown) [ART838]
MOLM14 cells killed [1]: 64%

C=CCO/N=C(/C[C@H]1O[C@@H]2O[C@@]3(C)CC[C@H]4[C@H](C)CC[C@@H]([C@H]1C)[C@@]24OO3)[C@H]1O[C@@H]2O[C@@]3(C)CC[C@H]4[C@H](C)CC[C@@H]([C@H]1C)[C@@]24OO3 [ART631]
MOLM14 cells killed [1]: 67%
IC50 [2]: < 45 nM
solubility [3]: < 10 µg/mL

Source: US20250262146A1, “PLATFORM NANOPARTICLE TECHNOLOGY FOR SUSTAINED DELIVERY OF HYDROPHOBIC DRUGS” (UNIVERSITY OF MARYLAND, BALTIMORE, priority 2022, published 2025)
